The source of these data is publication PMC8164657, “Intraoperative visualization of nerves using a myelin protein-zero specific fluorescent tracer” (EJNMMI Research, 2021).

Values after ≈ are worked out from the molar mass of the structure shown. Values joined by “and” are separate entries in the source; they are usually repeats but may differ in a detail not shown here. Equal entries are not always repeated. Where two headings read alike, the source gives them in different places. Residues, ends and D or L forms follow the SMILES beside them. *: point of attachment. X1 = CC1(C)C(/C=C/C=C/C=C2/N(CCCCS(=O)(=O)O)c3ccc(S(=O)(=O)O)cc3C2(C)C)=[N+](CCCCCC(=O)NCCN2C(=O)CC(*)C2=O)c2ccc(S(=O)(=O)[O-])cc21; X2 = CC1(C)C(=C/C=C/C=C/C2=[N+](CCCCS(=O)(=O)O)c3ccc(S(=O)(=O)[O-])cc3C2(C)C)N(CCCCCC(=O)NCCN2C(=O)CC(*)C2=O)c2ccc(S(=O)(=O)O)cc21; Cy5 = far-red cyanine dye Cy5 on Cys

Data set [1] in a line: Stability towards glutathione. The format is physicochemical. Here is the method: (§1) spectrometer (Pharmacia Biotech).
(§2) Serum protein binding and LogP o/w
(§3) functionalized Cy5 were determined as previously described (7).
(§4) The stability towards glutathione of Cy5-

The nature of another data set: Solubility in H2O. It is filed as physicochemical. The following applies: water; saturated solution in H2O at r.t., centrifugation, absorption of supernatant (UV/Vis).
Another data set can be described thus: Serum protein binding. It is filed as in vitro ADME. Here is the method:
as §1, §2, §3, §4

The nature of data set [2]: Lipophilicity in octanol/water (LogPo/w). The format is physicochemical. The note with it: read-out: Lipophilicity (o/w), LogPo/w. The procedure: as §1, §2, §3, §4
The conditions of data set [3]: serum.
The conditions of data set [4]: ref Spa et al (2); cited from earlier work.
A short description of another data set: Stability in serum. The following applies: 24 h at 37 °C, % stable.
Details of data set [5]: method as in 2 sources, one per row (each row's own in cited_ref): ref Spa et al (2) ||| ref (2) (a number printed in a supplementary file, which may have a reference list of its own: not looked up in the article's list). The following applies: cited from earlier work.
A short description of data set [6]: Stability at different temperatures. The following applies: after 4 hr at -20 °C, PBS, 10–0.6 µM, relative to t=0, n = 6.
Description: A stock solution of either non-functionalized Cy5 or Cy5-P0101-125 (10 µM in PBS) was diluted
1:1 in PBS to create a concentration range between 10 –0.6 µM. The absorbance and
fluorescence intensities of each sample were measured (t=0 h) prior to storing the samples
at different temperatures (i.e., -20, 0, 20 and 37 °C). After t = 4 h, the absorbance and
fluorescence intensities of each sample was measured. The relative intensities (compared to
t=0) of each concentration were averaged to obtain n = 6 per temperature setting.
The target of data set [7] is T1, P0 (RT4 D6P2T Schwannoma cells) (Rattus norvegicus, UniProt P06907).
T1 construct: was performed using P0-expressing RT4 D6P2T cells; host or cells: RT4 D6P2T Schwannoma cells
T1 sequence (P06907 30-248): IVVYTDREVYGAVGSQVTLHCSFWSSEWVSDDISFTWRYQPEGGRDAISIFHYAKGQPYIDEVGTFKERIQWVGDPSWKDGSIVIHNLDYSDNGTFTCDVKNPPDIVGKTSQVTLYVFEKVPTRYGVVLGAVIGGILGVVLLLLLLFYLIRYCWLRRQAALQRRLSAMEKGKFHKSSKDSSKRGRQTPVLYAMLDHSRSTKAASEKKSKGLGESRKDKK
Nature of the data set: Blocking experiment with P0Ab. The note with it: 5 µL of 1 mg/mL P0Ab one hour prior to tracer; N = 10; ImageJ quantification; p = 0.001. The format is cell-based. The procedure:
To all samples, 1 mL medium containing 1 µM Cy5-P0_1–25, Cy5-P0_21–45, Cy5-P0_41–65, Cy5-P0_61–85, Cy5-P0_81–105, Cy5-P0_95–120, or Cy5-P0_101–125 was added at one hour prior to imaging (incubation at 4 °C; N = 3 per tracer). Peptide solutions were sonicated for 20 s prior to addition, in order to prevent aggregation of the peptides in solution. Cy5-functionalized derivatives of a P0-specific antibody (Cy5-P0Ab-H60), the extracellular portion of P0 (Cy5-P0ex) as well as a non-P0-specific peptide (Cy5-NP-41) and non-functionalized Cy5-Maleimide were used as controls (1 µM). A lysosomal (lysotracker green; 2 µL/mL, DND-26, Thermo Fisher) and nuclear stain (Hoechst 33342; 1 mg/mL, Thermo Fisher) were added as means to localize the cell nucleus and intracellular lysosomes. For blocking studies, 5 µL of a 1 mg/mL solution of non-functionalized P0Ab was added to the cells one hour prior to addition of Cy5-P0_101–125. The synthesis of the control compounds is described in the methods section of Additional file 1: Synthesis of control compounds.
In vitro and ex vivo fluorescence confocal images were acquired using a Leica SP8 WL at sequential settings and 10 × or 63 × magnification. […] For blocking studies, quantification of the fluorescence signal intensity (N = 10 for blocked and non-blocked) in the obtained images was performed using ImageJ according to previously described methods. […]

Data set [8] addresses T2, P0 (P0-expressing RT4 D6P2T cells) (Rattus norvegicus, UniProt P06907).
T2 construct: was performed using P0-expressing RT4 D6P2T cells; host or cells: RT4 D6P2T Schwannoma cells
T2 sequence (P06907 30-248): T1 sequence (P06907 30-248)
Nature of the data set: Flow cytometric saturation binding (KD). The following applies: saturation binding 0–2000 nM, flow cytometry APC-A channel, triplicate, repeated at least three times. The procedure: Analysis of the binding affinity (KD) of Cy5-P0_1–25, Cy5-P0_41–65, Cy5-P0_61–85, Cy5-P0_81–105, Cy5-P0_95–120 and Cy5-P0_101–125 for P0 was performed using P0-expressing RT4 D6P2T cells and a previously described flow cytometric method. For saturation, binding experiments were performed for each of the fluorescent peptides in a concentration range of 0–2000 nM. All measurements were taken in triplicate, and experiments were repeated at least three times per tracer. Fluorescence was measured using a FACSCanto II flow cytometry device (BD Biosciences) in the APC-A channel. The normalized geometric means were fitted with equations in the GraphPad Prism 5 software. A fluorescence-linked immunoabsorbent assay (FLISA) that was used to confirm the specificity of Cy5-P0_101–125 for P0 is described in Additional file 1: Fluorescence-linked immunoabsorbent assay.

A further data set deals with T3, Myelin protein zero (P0) (Rattus norvegicus, UniProt P06907).
T3 chain: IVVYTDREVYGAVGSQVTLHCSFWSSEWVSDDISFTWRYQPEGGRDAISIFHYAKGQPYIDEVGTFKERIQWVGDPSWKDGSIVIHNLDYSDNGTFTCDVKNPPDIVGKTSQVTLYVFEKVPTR
As to the kind of experiment: flow cytometry saturation binding (RT4 D6P2T cells).

As for `CC[C@H](C)[C@H](NC(=O)[C@H](CC(=O)O)NC(=O)[C@@H]1CCCN1C(=O)[C@@H]1CCCN1C(=O)[C@H](CC(N)=O)NC(=O)[C@H](CCCCN)NC(C)=O)C(=O)N[C@H](C(=O)NCC(=O)N[C@@H](CCCCN)C(=O)N[C@H](C(=O)N[C@@H](CO)C(=O)N[C@@H](CCC(N)=O)C(=O)N[C@H](C(=O)N[C@H](C(=O)N[C@@H](CC(C)C)C(=O)N[C@@H](Cc1ccc(O)cc1)C(=O)N[C@H](C(=O)N[C@@H](Cc1ccccc1)C(=O)N[C@@H](CCC(=O)O)C(=O)N[C@@H](CCCCN)C(=O)N[C@H](C(=O)N1CCC[C@H]1C(=O)N[C@H](C(=O)N[C@@H](CCCNC(=N)N)C(=O)N[C@@H](Cc1ccc(O)cc1)C(=O)N[C@@H](CSC1CC(=O)N(CCNC(=O)CCCCCN2C(=C/C=C/C=C/C3=[N+](CCCCS(=O)(=O)O)c4ccc(S(=O)(=O)[O-])cc4C3(C)C)C(C)(C)c3cc(S(=O)(=O)O)ccc32)C1=O)C(N)=O)[C@@H](C)O)C(C)C)C(C)C)[C@@H](C)O)C(C)C)[C@@H](C)O)C(C)C` (stereo partly drawn) [Cy5-P0_101–125] (Ac-KNPPDIVGKTSQVTLYVFEKVPTRYC(X2)-NH2), in data set [1] (6 hr at 37 °C), the “degradation when incubated with glutathione” value was found to be 8%. In data set [1] (buffer or solvent, 37 °C water bath, stock in H2O, HPLC UV/Vis), this molecule had a share remaining at 6 h of 92%. Moreover, the solubility (thermodynamic) in the data set “Solubility in H2O” was found to be 172 µM (≈ 673 µg/mL). In addition, the Serum protein binding in “Serum protein binding” is on record as 89% ± 2%. In data set [2], the logP was -1.39 ± 0.09. Besides, the fraction remaining at 24 h in [3] is 99%.
As to `CCN1/C(=C/C=C/C=C/C2=[N+](CCCCCC(=O)O)c3ccc(S(=O)(=O)O)cc3C2(C)C)C(C)(C)c2cc(S(=O)(=O)[O-])ccc21` [Cy5], in [4], the Serum protein binding is 6% ± 5% and 6%. Besides, in “Stability in serum”, the Stability in serum is 98%. Besides, the “degradation when incubated with glutathione” value in data set [5] (ref (2)) is 1%. In addition, in data set [5] (ref Spa et al (2)), the Stability towards glutathione is recorded as 99%. Also, in [6], the remaining absorbance is given as 66 ± 8% and the remaining fluorescence is 80 ± 10%.
On to `CC[C@H](C)[C@H](NC(=O)[C@H](CC(=O)O)NC(=O)[C@@H]1CCCN1C(=O)[C@@H]1CCCN1C(=O)[C@H](CC(N)=O)NC(=O)[C@H](CCCCN)NC(C)=O)C(=O)N[C@H](C(=O)NCC(=O)N[C@@H](CCCCN)C(=O)N[C@H](C(=O)N[C@@H](CO)C(=O)N[C@@H](CCC(N)=O)C(=O)N[C@H](C(=O)N[C@H](C(=O)N[C@@H](CC(C)C)C(=O)N[C@@H](Cc1ccc(O)cc1)C(=O)N[C@H](C(=O)N[C@@H](Cc1ccccc1)C(=O)N[C@@H](CCC(=O)O)C(=O)N[C@@H](CCCCN)C(=O)N[C@H](C(=O)N1CCC[C@H]1C(=O)N[C@H](C(=O)N[C@@H](CCCNC(=N)N)C(=O)N[C@@H](Cc1ccc(O)cc1)C(=O)N[C@@H](CSC1CC(=O)N(CCNC(=O)CCCCC[N+]2=C(/C=C/C=C/C=C3/N(CCCCS(=O)(=O)O)c4ccc(S(=O)(=O)O)cc4C3(C)C)C(C)(C)c3cc(S(=O)(=O)[O-])ccc32)C1=O)C(N)=O)[C@@H](C)O)C(C)C)C(C)C)[C@@H](C)O)C(C)C)[C@@H](C)O)C(C)C` (stereo partly drawn) [Cy5-P0_101–125] (Ac-KNPPDIVGKTSQVTLYVFEKVPTRYC(X1)-NH2), for which the “Cy5-related fluorescence remaining after blocking with P0Ab” value in data set [7] turned out to be 13.5 ± 7.1%.
`CC[C@H](C)[C@H](NC(=O)[C@H](C)NC(=O)[C@H](CC(=O)O)NC(=O)[C@H](CCCNC(=N)N)NC(=O)CNC(=O)CNC(=O)[C@H](CCC(=O)O)NC(=O)[C@@H]1CCCN1C(C)=O)C(=O)N[C@@H](CO)C(=O)N[C@H](C(=O)N[C@@H](Cc1ccccc1)C(=O)N[C@@H](Cc1c[nH]cn1)C(=O)N[C@@H](Cc1ccc(O)cc1)C(=O)N[C@@H](C)C(=O)N[C@@H](CCCCN)C(=O)NCC(=O)N[C@@H](CCC(N)=O)C(=O)N1CCC[C@H]1C(=O)N[C@@H](Cc1ccc(O)cc1)C(=O)N[C@H](C(=O)N[C@@H](CC(=O)O)C(=O)N[C@@H](CCC(=O)O)C(=O)N[C@H](C(=O)NCC(=O)N[C@H](C(=O)N[C@@H](CSC1CC(=O)N(CCNC(=O)CCCCC[N+]2=C(/C=C/C=C/C=C3/N(CCCCS(=O)(=O)O)c4ccc(S(=O)(=O)O)cc4C3(C)C)C(C)(C)c3cc(S(=O)(=O)[O-])ccc32)C1=O)C(N)=O)[C@@H](C)O)C(C)C)[C@@H](C)CC)[C@@H](C)CC` (stereo partly drawn) [Cy5-P0_41–65] (Ac-PEGGRDAISIFHYAKGQPYIDEVGTC(X1)-NH2) had a Kd in data set [8] of more than 1000 nM. This molecule gave a solubility (thermodynamic) in the data set “Solubility in H2O” of 45 µM (≈ 169 µg/mL).
On the same counts, the results for `CC[C@H](C)[C@H](NC(=O)[C@H](CCCNC(=N)N)NC(=O)[C@H](CCC(=O)O)NC(=O)[C@H](CCCCN)NC(=O)[C@H](Cc1ccccc1)NC(=O)[C@@H](NC(=O)CNC(=O)[C@@H](NC(=O)[C@H](CCC(=O)O)NC(=O)[C@H](CC(=O)O)NC(C)=O)C(C)C)[C@@H](C)O)C(=O)N[C@@H](CCC(N)=O)C(=O)N[C@@H](Cc1c[nH]c2ccccc12)C(=O)N[C@H](C(=O)NCC(=O)N[C@@H](CC(=O)O)C(=O)N1CCC[C@H]1C(=O)N[C@@H](CCCNC(=N)N)C(=O)N[C@@H](Cc1c[nH]c2ccccc12)C(=O)N[C@@H](CCCCN)C(=O)N[C@@H](CC(=O)O)C(=O)NCC(=O)N[C@@H](CO)C(=O)N[C@H](C(=O)N[C@H](C(=O)N[C@H](C(=O)N[C@@H](CSC1CC(=O)N(CCNC(=O)CCCCC[N+]2=C(/C=C/C=C/C=C3/N(CCCCS(=O)(=O)O)c4ccc(S(=O)(=O)O)cc4C3(C)C)C(C)(C)c3cc(S(=O)(=O)[O-])ccc32)C1=O)C(N)=O)[C@@H](C)CC)C(C)C)[C@@H](C)CC)C(C)C` (stereo partly drawn) [Cy5-P0_61–85] (Ac-DEVGTFKERIQWVGDPRWKDGSIVIC(X1)-NH2) are more than 1000 nM and 6 µM (≈ 23.8 µg/mL).
Ac-KNPPDIVGKTSQVTLYVFEKVPTRYC(Cy5)-NH2 [Cy5-P0(101-125)] registered a Kd in the data set with Myelin protein zero (P0) of 105 nM. This counts as sub-micromolar.
